Patent US9676870B2, “Methods of treating atherosclerosis and aneurysm” (The Brigham and Women's Hospital, Inc., priority 2011, dated 2017)
“Also recorded” adds a separate entry of the source. Residues, ends and D or L forms follow the SMILES beside them. *: point of attachment. Cbz = O=C(OCc1ccccc1)*; CH2F = FC*

Tests used:
Assay type in all cases: cell-based
[1] = tested on: human macrophages; test: IgE-induced human macrophage medium pH reduction
Procedure: (§1) Human macrophages were prepared by differentiating Ficoll gradient-separated monocytes from human blood in RPMI with 10% human serum (Gemini Bio-Products, West Sacramento, Calif.) for 10 days on Falcon PRIMARIA™ tissue culture dishes (Becton Dickinson Labware, Franklin Lakes, N.J.) without coating. Mouse thioglycolate (3%, Sigma, St. Louis, Mo.)-stimulated peritoneal macrophages were prepared from WT C57BL/6 mice (Jackson Laboratory), Fcer1a^−/− mice (congenic C57BL/6, N>8) (21), Tlr2^−/− mice (Jackson Laboratory, N16), and […] (Jackson Laboratory, C57BL/6, N8). Cells were cultured in RPMI-1640 with 10% fetal bovine serum (FBS). Human aortic SMCs and ECs were obtained from human donor aortas and subcultured at passages 2-5 in DMEM containing 10% FBS (for SMCs), or in medium 199 containing 20% FBS (for ECs).
(§2) To detect IgE-induced apoptosis, human and mouse macrophages and HuSMC were cultured on 8-well chamber slides, 96-well plates, or 6-well plate pre-coated with 1% gelatin. […]

[2] = tested on: human macrophages; test: IgE-induced human macrophage IL6 secretion; settings: human macrophages from most donors; IgE 50 μg/mL
Procedure: as §1
(§3) To detect cytokine production, cells were starved in corresponding media containing 0.5% FBS overnight, then incubated for 2 days in starvation media containing IgE (50 μg/mL for macrophages; 100 μg/mL for SMCs and ECs). Mouse poorly cytokinergic monomeric IgE H1 DNP-ε-206 (50 μg/mL) (34) and highly cytokinergic aggregated IgE SPE-7 (50 μg/mL) (Sigma) with or without LPS (100 ng/mL), ox-LDL (50 μg/mL), or DNP-HSA (10 ng/mL) were used to stimulate mouse macrophages. Human IgE was obtained from Immunology Consultants Laboratory, Inc. (Newberg, Oreg., RA-80E). […]

[3] = tested on: mouse peritoneal macrophages; test: Mouse peritoneal macrophage IL6 / MCP-1 production (ELISA, real-time PCR)
Procedure: as §1, §3

[4] = tested on: human macrophages; test: IgE-induced human macrophage cell death (MTT assay); settings: human macrophages from most donors, IgE 50 μg/mL
Procedure: as §1, §2

[5] = tested on: human monocyte-derived macrophages; test: Human monocyte-derived macrophage apoptosis (TUNEL staining)
Procedure: as §1, §2

[6] = tested on: mouse peritoneal macrophages; test: Mouse peritoneal macrophage apoptosis / cell death (TUNEL, MTT); settings: 50-100 μM EIPA, 50 μg/mL mouse IgE (SPE-7)
Procedure: as §1, §2

[7] = tested on: HuSMCs; test: Cultured human aortic SMC (HuSMC) stimulation: immunoblot, cytokines, cell death; settings: IFN-γ 20 ng/mL, 50 μg lysate
Procedure: as §1, §3

[8] = tested on: HuECs; test: Cultured human EC (HuEC) stimulation: immunoblot, cell death; settings: IFN-γ 20 ng/mL, 50 μg lysate
Procedure: as §1, §3

CCN(c1nc(N)c(C(=O)NC(=N)N)nc1Cl)C(C)C [EIPA, ethylisopropylamiloride]
blocking of IgE-induced medium color change and pH reduction ([1]; 10 μM EIPA, IgE 50 μg/mL): completely blocked
pH change by EIPA treatment alone ([1]; EIPA alone, no IgE): did not change pH
blocking of IgE-induced IL6 secretion [2]: significantly blocked
blocking of IgE-induced macrophage secretion of IL6 ([3]; 50-100 μM EIPA, 50 μg/mL mouse IgE (SPE-7)): blocked significantly
blocking of IgE-induced cell death [4]: significantly blocked
cell death caused by EIPA alone ([5]; 10 μM EIPA, same condition as LPS, 2-3 days, data not shown): did not cause any cell death
blocking of IgE-induced macrophage apoptosis [6]: blocked significantly

COC(=O)C[C@H](NC(=O)[C@H](C)NC(=O)[C@@H](NC(=O)OCc1ccccc1)C(C)C)C(=O)CF [ZVAD-FMK] (Cbz-Val-Ala-Asp(OMe)-CH2F)
blocking of IgE-induced human macrophage apoptosis ([5]; ZVAD-FMK 20 μM, IgE 50 μg/mL): blocked; also recorded: efficiently blocks

dinitrophenyl-human serum albumin [DNP-HSA]
impact of antigen on SPE-7 or H1 DNP-ε-206 in macrophage activity assays ([3]; 10 ng/mL DNP-HSA, pH, cell death and IL6 assays): no significant impact

B1: IFN-γ: inflammatory cytokine (protein, UniProt P01579 24-161, looked up)
Interferon gamma: QDPYVKEAENLKKYFNAGHSDVADNGTLFLGILKNWKEESDRKIMQSQIVSFYFKLFKNFKDDQSIQKSVETIKEDMNVKFFNSNKKKRDDFEKLTNYSVTDLNVQRKAIHELIQVMAELSPAAKTGKRKRSQMLFRG
FcεR1α expression in SMCs [7]: induced FcεR1α expression
FcεR1α expression in ECs [8]: induced FcεR1α expression
